In ChEMBL document CHEMBL4616608, “Discovery of a lead series of potent benzodiazepine 5-HT2C receptor agonists with high selectivity in functional and binding assays” (Bioorg Med Chem Lett, 2020) one finds concentration data, which are given here for one molecule.

Data set [1] is described as follows: in vivo. Particulars: rat, brain, po, 10 mg/kg.
Data set [2] is described as follows: in vivo. The following applies: rat, cerebrospinal fluid, po, 10 mg/kg.
Data set [3] is described as follows: in vivo. The following applies: rat, plasma, po, 10 mg/kg.

With `CC1(C)CN2CCNCc3ccc(F)c1c32`, the concentration at 1 h in the data set “in vivo [1]” turned out to be 8860 ng/g; in “in vivo [2]” it was 170 ng/mL; in “in vivo [3]”, 608 ng/mL.
